One assay deals with T1, 5-HT transporter (Homo sapiens, UniProt P31645).
T1 construct: expressed in transfected cells; host or cells: HEK-293
Briefly: Serotonergic transporter binding ([3H]imipramine). The conditions noted are these: [3H]imipramine 2 nM, HEK-293 recombinant, read-out: percentage inhibition at 10 μM of control specific binding to the serotonergic transporter. As for the experimental part: The serotonergic 5-HT transporter was isolated from human recombinant HEK-293 cells according to the method described by Tatsumi et al. (1997), Pharmacological profile of antidepressants and related compounds at human monoamine transporters, Eur. J. Pharmacol., 340: 249-258.
Serotonergic transporter binding was determined by a radioligand method using tritium-labelled imipramine (2 nM) as substrate (Tatsumi et al., 1999). Ligand radioactivity was determined by liquid scintillation counting. Ligand incubations were carried out for thirty minutes at 22° C. The experiment was conducted in duplicate.
The specific ligand binding to the serotonergic transporter was defined as the difference between the total binding and the non specific binding determined in presence of an excess of unlabelled ligand. The results obtained are presented in Table 3 hereinbelow and are expressed as percent of control specific binding and as a percent inhibition of control specific binding obtained in presence of 10 μM of substance.

Assay [1] relates to σ (non-selective) receptors. Briefly: Sigma receptors binding, non-selective ([3H]DTG). The conditions noted are these: [3H]DTG 8 nM, rat cerebral cortex. As to the method:
The sigma receptors were isolated from rat cerebral cortex according to the method described in Shirayama et al., 1993, p-Chlorophenylalanine-reversible reduction of s binding sites by chronic imipramine treatment in rat brain, Eur. J. Pharmacol., 237: 117-126.
(§1) Sigma 1 receptor binding was determined by a radioligand method using tritium-labelled DTG (8 nM) as substrate (Shirayama et al., 1993). Ligand radioactivity was determined by liquid scintillation counting. For sigma binding evaluation, ligand incubations were carried out for one hundred twenty minutes at 22° C. The experiments were conducted in duplicate.
The specific ligand binding to the sigma receptors was defined as the difference between the total binding and the non specific binding determined in presence of an excess of unlabelled ligand. […]

For the next assay, the system named is PDE1. Briefly: Selectivity: inhibition of PDE1 (radioenzymatic assay). Type of assay: biochemical, bovine. The conditions noted are these: Table 2. As to the method:
(§2) 2.1.1. Isolation of Phosphodiesterases from Smooth Muscle A 3 g segment of bovine aortic media cut into pieces with scissors was homogenized with an ultra-turrax then a potter glass/glass homogenizer in 7 volumes by weight of buffer A containing a protease inhibitor cocktail (20 mM Tris-HCl, 0.25 M saccharose, 2 mM magnesium acetate, 1 mM dithiothreitol, 5 mM EGTA, 2000 U/ml aprotinin, 10 mg/l leupeptin and 10 mg/l soya trypsic inhibitor). The homogenizate was centrifuged at 105,000 g for 1 hour. The supernatant was loaded on a DEAE-Sephacel column (15×1.6 cm) pre-equilibrated with buffer B (buffer A without the saccharose, EGTA and protease inhibitors). The column was washed until there was no detectable absorption at 280 nm, then eluted with a linear gradient of NaCl (0-0.5 M) in buffer B. 3-ml fractions were collected and enzyme activity was determined under the conditions described hereinbelow to localize the different enzymes PDE1, PDE3, PDE4 and PDE5 which were aliquoted and frozen at −80° C. (Lugnier et al., Biochem. Phamacol., 1986, 35: 1746-1751). […]
(§3) Cyclic nucleotide phosphodiesterase activity was determined by a radioenzymatic method using tritium-labelled cyclic GMP or AMP (1 μM) as substrate (Lugnier et al., 1986). ^3H-labelled adenosine or guanosine monophosphate formed by hydrolysis of the radiolabelled cyclic nucleotide was then converted to ^3H-labelled adenosine or guanosine in a second reaction with one nucleotidase in excess. […] Nucleoside radioactivity was determined by liquid scintillation counting. […]
(§4) The activity of the compounds was evaluated on other phosphodiesterase isoforms, particularly basal state or calmodulin-activated PDE1 from vascular smooth muscle, PDE3, PDE4 and PDE5 from vascular smooth muscle. The results obtained are presented in Tables 1 and 2 hereinbelow and are expressed as the percentage inhibition of enzymatic activity produced by […] of the test compound.

Another assay deals with PDE4. The assay can be described thus: Selectivity: inhibition of PDE4 (radioenzymatic assay). It counts as biochemical, bovine. The conditions noted are these: Table 2. As for the experimental part:
2.1.1. Isolation of Phosphodiesterases from Smooth Muscle A 3 g segment of bovine aortic media cut into pieces with scissors was homogenized with an ultra-turrax then a potter glass/glass homogenizer in 7 volumes by weight of buffer A containing a protease inhibitor cocktail (20 mM Tris-HCl, 0.25 M saccharose, 2 mM magnesium acetate, 1 mM dithiothreitol, 5 mM EGTA, 2000 U/ml aprotinin, 10 mg/l leupeptin and 10 mg/l soya trypsic inhibitor). The homogenizate was centrifuged at 105,000 g for 1 hour. The supernatant was loaded on a DEAE-Sephacel column (15×1.6 cm) pre-equilibrated with buffer B (buffer A without the saccharose, EGTA and protease inhibitors). The column was washed until there was no detectable absorption at 280 nm, then eluted with a linear gradient of NaCl (0-0.5 M) in buffer B. 3-ml fractions were collected and enzyme activity was determined under the conditions described hereinbelow to localize the different enzymes PDE1, PDE3, PDE4 and PDE5 which were aliquoted and frozen at −80° C. (Lugnier et al., Biochem. Phamacol., 1986, 35: 1746-1751). PDE2 was isolated from human platelets, provided by Etablissement Français du Sang-Alsace, according to Kameni Tcheudji J F et al., (J. Mol. Biol. 2001; 310: 181-791), and stored until use at −80° C. in small aliquots.
Cyclic nucleotide phosphodiesterase activity was determined by a radioenzymatic method using tritium-labelled cyclic GMP or AMP (1 μM) as substrate (Lugnier et al., 1986). ^3H-labelled adenosine or guanosine monophosphate formed by hydrolysis of the radiolabelled cyclic nucleotide was then converted to ^3H-labelled adenosine or guanosine in a second reaction with […] in excess. The nucleoside formed was separated from the nucleotides by anion exchange chromatography. Nucleoside radioactivity was determined by liquid scintillation counting. Enzymatic incubations were carried out under conditions allowing no more than 15% hydrolysis of the substrate; each point was performed in duplicate.
as §4

The target in the next assay is T2, sigma 1 receptors (Cavia porcellus, UniProt Q60492).
T2 construct: The sigma 1 receptors were isolated from guinea pig cerebral cortex; from tissue; host or cells: guinea pig cerebral cortex
The assay can be described thus: Sigma 1 receptor binding ([3H](+)pentazocine). The conditions noted are these: [3H](+)pentazocine 2 nM, guinea pig cerebral cortex, read-out: σ1 percentage inhibition at 10 μM. As for the experimental part: The sigma 1 receptors were isolated from guinea pig cerebral cortex according to the method described in Bowen et al., 1993.
as §1, with “(+)pentazocine (2” for “DTG (8”, “(Bowen et al., 1993). Sigma 2 receptor binding was determined by a radioligand method using tritium-labelled DTG (+300 nM (+)pentazocine) (5 nM) as substrate (Bowen” for “(Shirayama”, “sigma 1 binding evaluation, ligand incubations were carried out for one hundred fifty minutes at 22° C. For sigma 2” for “sigma”
The specific ligand binding to the sigma receptors was defined as the difference between the total binding and the non specific binding determined in presence of an excess of unlabelled ligand. The results obtained are presented in Table 4 hereinbelow and are expressed as percent of control specific binding and as a percent inhibition of control specific binding obtained in presence of 10 μM of substance.

For the next assay, the target named is T3, PDE5 (Bos taurus, UniProt Q28156).
T3 construct: PDE3, PDE4 and PDE5 from vascular smooth muscle; from tissue; host or cells: bovine aortic media (vascular smooth muscle), DEAE-Sephacel fraction
Briefly: Selectivity: inhibition of PDE5 (radioenzymatic assay). It counts as biochemical, bovine. The conditions noted are these: Table 2. As for the experimental part:
as §2, §3, §4

T1 sequence (P31645 whole entry): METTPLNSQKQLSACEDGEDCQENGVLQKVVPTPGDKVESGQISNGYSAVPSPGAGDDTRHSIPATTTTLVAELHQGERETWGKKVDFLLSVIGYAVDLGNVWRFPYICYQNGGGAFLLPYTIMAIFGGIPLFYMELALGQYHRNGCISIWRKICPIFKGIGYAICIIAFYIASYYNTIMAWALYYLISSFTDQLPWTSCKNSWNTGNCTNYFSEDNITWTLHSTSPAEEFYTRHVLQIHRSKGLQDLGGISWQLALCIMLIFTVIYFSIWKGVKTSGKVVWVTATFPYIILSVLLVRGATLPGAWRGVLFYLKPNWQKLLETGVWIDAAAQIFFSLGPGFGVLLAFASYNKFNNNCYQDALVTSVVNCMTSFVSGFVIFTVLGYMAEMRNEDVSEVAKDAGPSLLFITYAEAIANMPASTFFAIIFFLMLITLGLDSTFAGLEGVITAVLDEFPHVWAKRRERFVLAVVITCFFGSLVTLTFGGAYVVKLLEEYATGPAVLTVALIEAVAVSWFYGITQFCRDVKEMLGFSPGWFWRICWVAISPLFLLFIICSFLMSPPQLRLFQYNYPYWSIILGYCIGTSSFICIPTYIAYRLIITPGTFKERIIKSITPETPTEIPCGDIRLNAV
T2 sequence (Q60492 whole entry): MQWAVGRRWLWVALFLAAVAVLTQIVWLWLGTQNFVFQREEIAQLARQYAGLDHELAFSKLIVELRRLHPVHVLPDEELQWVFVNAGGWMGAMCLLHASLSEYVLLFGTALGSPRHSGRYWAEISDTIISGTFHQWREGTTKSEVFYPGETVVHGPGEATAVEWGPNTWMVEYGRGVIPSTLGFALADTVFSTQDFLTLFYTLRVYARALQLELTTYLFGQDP

Turning to `COc1cc2c(c(OC)c1-c1ccccc1)C(c1cccc(C(N)=O)c1)=NCC(=O)N2C` [Compound 17, 3-(6,8-Dimethoxy-1-methyl-2-oxo-7-phenyl-2,3-dihydro-1H-benzo[e][1,4]diazepin-5-yl)-benzamide], the inhibition at 10 µM came out at 98% at 5-HT transporter; 93% at sigma 1 receptors; 22% at PDE5 (10 μM compound, read-out: PDE5 percentage inhibition at 10 μM). For the same compound, the “σ (non-selective) percentage inhibition at 0.1 μM” value in assay [1] (0.1 μM) is on record as 1%. The “σ (non-selective) percentage inhibition at 1 μM” value in assay [1] (1 μM) came to 57%. For the same compound, in assay [1] (10 μM), the “σ (non-selective) percentage inhibition at 10 μM” value turned out to be 100%. The “PDE1 percentage inhibition at 10 μM” value in the assay on PDE1 (10 μM compound) stood at 22%. The IC50 in the assay with PDE1 (value in square brackets) was determined as 37 µM; with PDE4 (value in square brackets), 47 µM; against PDE5 (value in square brackets), 42 µM. Also, the “PDE4 percentage inhibition at 10 μM” value in the assay on PDE4 (10 μM compound) worked out at 23%.

Source of the values: patent US20090215752A1, “Compounds, preparation and therapeutic use thereof” (priority 2005, published 2009).
